± gives the expanded uncertainty stated by the source.
Test: refractive index (other wavelength) (dimensionless); xn = mol fraction of the nth substance listed
Details: 101.33 kPa, Liquid, Wavelength=632.8 nm, Standard Abbe refractometry

COC(=O)CCCCC(=O)OC [dimethyl 1,6-hexanedioate] + CCCCCCC
Details	refractive index
289.5 K, x1 = 1	1.4287 ± 0.0004
291.65 K, x1 = 1	1.4279 ± 0.0004
292.22 K, x1 = 0.1018	1.3909 ± 0.0005
292.85 K, x1 = 0.5999	1.412 ± 0.0005
293.07 K, x1 = 0.7009	1.4159 ± 0.0005
293.2 K, x1 = 0.8979	1.4236 ± 0.0005
293.27 K, x1 = 0.1018	1.3904 ± 0.0005
293.28 K, x1 = 0.8048	1.42 ± 0.0005
293.87 K, x1 = 0.5999	1.4115 ± 0.0005
294.11 K, x1 = 0.8979	1.4232 ± 0.0005
294.12 K, x1 = 0.7009	1.4155 ± 0.0005
294.22 K, x1 = 0.8048	1.4196 ± 0.0005
294.37 K, x1 = 0.1018	1.3898 ± 0.0005
294.86 K, x1 = 0.5999	1.4111 ± 0.0005
294.9 K, x1 = 1	1.4265 ± 0.0004
294.96 K, x1 = 0.2007	1.398 ± 0.0005
295.01 K, x1 = 0.8979	1.4228 ± 0.0005
295.12 K, x1 = 0.8048	1.4192 ± 0.0005
295.15 K, x1 = 0.7009	1.415 ± 0.0005
295.39 K, x1 = 0.1018	1.3893 ± 0.0005
295.61 K, x1 = 0.3992	1.402 ± 0.0004
295.8 K, x1 = 0.4976	1.4062 ± 0.0005
295.83 K, x1 = 0.5999	1.4107 ± 0.0005
295.94 K, x1 = 0.8979	1.4224 ± 0.0005
295.95 K, x1 = 0.2007	1.3975 ± 0.0005
296.09 K, x1 = 0.8048	1.4188 ± 0.0005
296.15 K, x1 = 0.7009	1.4146 ± 0.0005
296.45 K, x1 = 0.1018	1.3888 ± 0.0007
296.65 K, x1 = 0.3992	1.4016 ± 0.0004
296.81 K, x1 = 0.5999	1.4103 ± 0.0005
296.89 K, x1 = 0.8979	1.422 ± 0.0005
296.9 K, x1 = 0.4976	1.4056 ± 0.0005
296.91 K, x1 = 0.2007	1.3971 ± 0.0005
296.94 K, x1 = 1	1.4257 ± 0.0004
297.08 K, x1 = 0.8048	1.4184 ± 0.0005
297.23 K, x1 = 0.7009	1.4142 ± 0.0005
297.45 K, x1 = 0.1018	1.3883 ± 0.0007
297.64 K, x1 = 0.3992	1.4011 ± 0.0004
297.81 K, x1 = 0.8979	1.4216 ± 0.0005
297.87 K, x1 = 0.5999	1.4098 ± 0.0005
297.95 K, x1 = 0.4976	1.4052 ± 0.0005
298.02 K, x1 = 0.2007	1.3965 ± 0.0004
298.02 K, x1 = 0.8048	1.418 ± 0.0005
298.15 K, x1 = 0.7009	1.4138 ± 0.0005
298.66 K, x1 = 0.3992	1.4007 ± 0.0005
298.92 K, x1 = 0.4976	1.4048 ± 0.0005
299.11 K, x1 = 0.2007	1.396 ± 0.0004
299.7 K, x1 = 0.3992	1.4002 ± 0.0005
299.93 K, x1 = 0.4976	1.4043 ± 0.0005
300.15 K, x1 = 0.2007	1.3955 ± 0.0004
300.67 K, x1 = 0.3992	1.3997 ± 0.0005
300.93 K, x1 = 0.4976	1.4039 ± 0.0005
301.21 K, x1 = 0.2007	1.395 ± 0.0004
301.74 K, x1 = 0.3992	1.3992 ± 0.0005
301.98 K, x1 = 0.4976	1.4034 ± 0.0005
